Data taken from US20060134102A1, “Lymphotoxin beta receptor agents in combination with chemotherapeutic agents” (Biogen Idec MA Inc., priority 2002, published 2006).

Tested on: KM-20L2 human colorectal adenocarcinoma
Assay: KM-20L2 xenograft model: growth of established KM-20L2 human colorectal tumors in athymic nude mice (tumor volume/weight, % T/C, Fa, Combination Index)
Type: in vivo

Substance: huCBE11: humanized anti-LT-β-R agonist antibody (LTβ receptor-activating mAb), described in WO 02/30986
- Median Effect Dose (Combined (1:0.63 huCBE11:Camptosar), dose of the labelled agent in the combination, Day 13): 10.7 mg/kg
- Median Effect Dose (Combined (1:0.63 huCBE11:Camptosar), dose of the labelled agent in the combination, Day 16): 2.6 mg/kg
- Median Effect Dose (Combined (1:0.63 huCBE11:Camptosar), dose of the labelled agent in the combination, Day 20): 1.0 mg/kg
- Median Effect Dose (Combined (1:0.63 huCBE11:Camptosar), dose of the labelled agent in the combination, Day 23): 1.1 mg/kg
- Median Effect Dose (Combined (1:0.63 huCBE11:Camptosar), dose of the labelled agent in the combination, Day 27): 1.5 mg/kg
- Median Effect Dose (Combined (1:0.63 huCBE11:Camptosar), dose of the labelled agent in the combination, Day 30): 1.8 mg/kg
- Median Effect Dose (Combined (1:0.63 huCBE11:Camptosar), dose of the labelled agent in the combination, Day 34): 1.8 mg/kg
- Median Effect Dose (Combined (1:0.63 huCBE11:Camptosar), dose of the labelled agent in the combination, Day 37): 1.6 mg/kg
- Median Effect Dose (Combined (1:0.63 huCBE11:Camptosar), dose of the labelled agent in the combination, Day 41): 1.5 mg/kg
- Median Effect Dose (Given Separately, Day 13): 174 mg/kg
- Median Effect Dose (Given Separately, Day 16): 981 mg/kg
- Median Effect Dose (Given Separately, Day 20): 32.7 mg/kg
- Median Effect Dose (Given Separately, Day 23): 9.0 mg/kg
- Median Effect Dose (Given Separately, Day 27): 2.1 mg/kg
- Median Effect Dose (Given Separately, Day 30): 3.8 mg/kg
- Median Effect Dose (Given Separately, Day 34): 3.6 mg/kg
- Median Effect Dose (Given Separately, Day 37): 6.6 mg/kg
- Median Effect Dose (Given Separately, Day 41): 3.0 mg/kg
- Median Effect Dose (Given Separately; Day 16): 2077 mg/kg
- Median Effect Dose (Given Separately; Day 20): 9.5 mg/kg
- Median Effect Dose (Given Separately; Day 23): 4.8 mg/kg
- Median Effect Dose (Given Separately; Day 27): 3.3 mg/kg
- Median Effect Dose (Given Separately; Day 30): 3.8 mg/kg
- Median Effect Dose (Given Separately; Day 34): 3.2 mg/kg
- Median Effect Dose (Given Separately; Day 37): 2.7 mg/kg
- Median Effect Dose (Given Separately; Day 41): 2.4 mg/kg
- Median Effect Dose (Given Separately; Day 43): 2.4 mg/kg
- Median Effect Dose (dose of the labelled agent when huCBE11 and Gemcitabine Combined (4:5); Day 16): 3.6 mg/kg
- Median Effect Dose (dose of the labelled agent when huCBE11 and Gemcitabine Combined (4:5); Day 20): 1.3 mg/kg
- Median Effect Dose (dose of the labelled agent when huCBE11 and Gemcitabine Combined (4:5); Day 23): 0.6 mg/kg
- Median Effect Dose (dose of the labelled agent when huCBE11 and Gemcitabine Combined (4:5); Day 27): 0.7 mg/kg
- Median Effect Dose (dose of the labelled agent when huCBE11 and Gemcitabine Combined (4:5); Day 30): 0.6 mg/kg
- Median Effect Dose (dose of the labelled agent when huCBE11 and Gemcitabine Combined (4:5); Day 34): 0.6 mg/kg
- Median Effect Dose (dose of the labelled agent when huCBE11 and Gemcitabine Combined (4:5); Day 37): 0.4 mg/kg
- Median Effect Dose (dose of the labelled agent when huCBE11 and Gemcitabine Combined (4:5); Day 41): 0.6 mg/kg
- Median Effect Dose (dose of the labelled agent when huCBE11 and Gemcitabine Combined (4:5); Day 43): 0.4 mg/kg
- % T/C (hCBE11 2 mg/kg; Days 41 to 55): ≤ 42%
- % T/C (hCBE11 4 mg/kg; Days 50 and 55): ≤ 42%
- Mean Fraction Affected (Fa) (huCBE11 0.2 mg/kg alone, Day 9): −0.026
- Mean Fraction Affected (Fa) (huCBE11 0.2 mg/kg alone, Day 13): 0.003
- Mean Fraction Affected (Fa) (huCBE11 0.2 mg/kg alone, Day 16): 0.125
- Mean Fraction Affected (Fa) (huCBE11 0.2 mg/kg alone, Day 20): 0.249
- Mean Fraction Affected (Fa) (huCBE11 0.2 mg/kg alone, Day 23): 0.294
- Mean Fraction Affected (Fa) (huCBE11 0.2 mg/kg alone, Day 27): 0.377
- Mean Fraction Affected (Fa) (huCBE11 0.2 mg/kg alone, Day 30): 0.369
- Mean Fraction Affected (Fa) (huCBE11 0.2 mg/kg alone, Day 34): 0.345
- Mean Fraction Affected (Fa) (huCBE11 0.2 mg/kg alone, Day 37): 0.372
- Mean Fraction Affected (Fa) (huCBE11 0.2 mg/kg alone, Day 41): 0.381
- Mean Fraction Affected (Fa) (huCBE11 0.2 mg/kg; Day 9): 0.063
- Mean Fraction Affected/Fraction Unaffected (Fa/Fu) (huCBE11 0.2 mg/kg; Day 9): 0.067
- Mean Tumor Volume (huCBE11 0.2 mg/kg; Day 9): 104.8 cubic mm
- Mean Tumor Volume Decrease (huCBE11 0.2 mg/kg; Day 9): 7.0 cubic mm
- Mean Fraction Affected (Fa) (huCBE11 0.2 mg/kg; Day 13): 0.071
- Mean Fraction Affected/Fraction Unaffected (Fa/Fu) (huCBE11 0.2 mg/kg; Day 13): 0.076
- Mean Tumor Volume (huCBE11 0.2 mg/kg; Day 13): 160.4 cubic mm
- Mean Tumor Volume Decrease (huCBE11 0.2 mg/kg; Day 13): 12.2 cubic mm
- Mean Fraction Affected (Fa) (huCBE11 0.2 mg/kg; Day 16): 0.055
- Mean Fraction Affected/Fraction Unaffected (Fa/Fu) (huCBE11 0.2 mg/kg; Day 16): 0.058
- Mean Tumor Volume (huCBE11 0.2 mg/kg; Day 16): 250.5 cubic mm
- Mean Tumor Volume Decrease (huCBE11 0.2 mg/kg; Day 16): 14.5 cubic mm
- Mean Fraction Affected (Fa) (huCBE11 0.2 mg/kg; Day 20): 0.073
- Mean Fraction Affected/Fraction Unaffected (Fa/Fu) (huCBE11 0.2 mg/kg; Day 20): 0.078
- Mean Tumor Volume (huCBE11 0.2 mg/kg; Day 20): 371.9 cubic mm
- Mean Tumor Volume Decrease (huCBE11 0.2 mg/kg; Day 20): 29.1 cubic mm
- Mean Fraction Affected (Fa) (huCBE11 0.2 mg/kg; Day 23): 0.016
- Mean Fraction Affected/Fraction Unaffected (Fa/Fu) (huCBE11 0.2 mg/kg; Day 23): 0.016
- Mean Tumor Volume (huCBE11 0.2 mg/kg; Day 23): 518.7 cubic mm
- Mean Tumor Volume Decrease (huCBE11 0.2 mg/kg; Day 23): 8.5 cubic mm
- Mean Fraction Affected/Fraction Unaffected (Fa/Fu) (huCBE11 0.2 mg/kg; Day 27): −0.008
- Mean Tumor Volume (huCBE11 0.2 mg/kg; Day 27): 673.8 cubic mm
- Mean Tumor Volume Decrease (huCBE11 0.2 mg/kg; Day 27): −5.2 cubic mm
- Mean Fraction Affected (Fa) (huCBE11 0.2 mg/kg; Day 30): 0.030
- Mean Fraction Affected/Fraction Unaffected (Fa/Fu) (huCBE11 0.2 mg/kg; Day 30): 0.030
- Mean Tumor Volume (huCBE11 0.2 mg/kg; Day 30): 792.1 cubic mm
- Mean Tumor Volume Decrease (huCBE11 0.2 mg/kg; Day 30): 24.1 cubic mm
- Mean Fraction Affected (Fa) (huCBE11 0.2 mg/kg; Day 34): 0.118
- Mean Fraction Affected/Fraction Unaffected (Fa/Fu) (huCBE11 0.2 mg/kg; Day 34): 0.134
- Mean Tumor Volume (huCBE11 0.2 mg/kg; Day 34): 926.4 cubic mm
- Mean Tumor Volume Decrease (huCBE11 0.2 mg/kg; Day 34): 123.9 cubic mm
- Mean Fraction Affected (Fa) (huCBE11 0.2 mg/kg; Day 37): 0.132
- Mean Fraction Affected/Fraction Unaffected (Fa/Fu) (huCBE11 0.2 mg/kg; Day 37): 0.152
- Mean Tumor Volume (huCBE11 0.2 mg/kg; Day 37): 1048.5 cubic mm
- Mean Tumor Volume Decrease (huCBE11 0.2 mg/kg; Day 37): 159.5 cubic mm
- Mean Fraction Affected (Fa) (huCBE11 0.2 mg/kg; Day 41): 0.120
- Mean Fraction Affected/Fraction Unaffected (Fa/Fu) (huCBE11 0.2 mg/kg; Day 41): 0.137
- Mean Tumor Volume (huCBE11 0.2 mg/kg; Day 41): 1266.0 cubic mm
- Mean Tumor Volume Decrease (huCBE11 0.2 mg/kg; Day 41): 173.4 cubic mm
- Mean Fraction Affected (Fa) (huCBE11 0.2 mg/kg; Day 43): 0.096
- Mean Fraction Affected/Fraction Unaffected (Fa/Fu) (huCBE11 0.2 mg/kg; Day 43): 0.107
- Mean Tumor Volume (huCBE11 0.2 mg/kg; Day 43): 1452.0 cubic mm
- Mean Tumor Volume Decrease (huCBE11 0.2 mg/kg; Day 43): 154.7 cubic mm
- Mean Fraction Affected (Fa) (huCBE11 2 mg/kg alone, Day 9): 0.101
- Mean Fraction Affected (Fa) (huCBE11 2 mg/kg alone, Day 13): 0.137
- Mean Fraction Affected (Fa) (huCBE11 2 mg/kg alone, Day 16): 0.322
- Mean Fraction Affected (Fa) (huCBE11 2 mg/kg alone, Day 20): 0.458
- Mean Fraction Affected (Fa) (huCBE11 2 mg/kg alone, Day 23): 0.497
- Mean Fraction Affected (Fa) (huCBE11 2 mg/kg alone, Day 27): 0.542
- Mean Fraction Affected (Fa) (huCBE11 2 mg/kg alone, Day 30): 0.524
- Mean Fraction Affected (Fa) (huCBE11 2 mg/kg alone, Day 34): 0.541
- Mean Fraction Affected (Fa) (huCBE11 2 mg/kg alone, Day 37): 0.485
- Mean Fraction Affected (Fa) (huCBE11 2 mg/kg alone, Day 41): 0.541
- % T/C, lowest observed (huCBE11 2 mg/kg and 4 mg/kg; dose ranging study): > 42%
